In patent US9695155B2, “Herbicidal substituted pyrimidinyloxy benzene compounds” (E. I. DU PONT DE NEMOURS AND COMPANY, priority 2013, dated 2017):

Tests used:
wheat [1] = assay: Test A preemergence; type: in vivo, Triticum aestivum
Procedure, shortened: (§1)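 Scoring: eye-based comparison with untreated controls, 0 for no effect through 100 for complete control, at about day 10. Treatments: directed soil spray preemergence; foliar spray postemergence on 2–10 cm plants at the one- to two-leaf stage. Medium: loam soil with sand.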

large (Lg) crabgrass [2] = assay: Test A preemergence; type: in vivo, Digitaria sanguinalis; conditions: for Crabgrass, Large plant response rating: 500 g ai/ha
Procedure, shortened: as §1

velvetleaf [3] = assay: Test A postemergence; type: in vivo, Abutilon theophrasti; conditions: 0 to 100 scale where 0 is no effect and 100 is complete control; for Plant response rating, Velvetleaf: 500 g ai/ha
Procedure, shortened: as §1

morningglory = assay: Test C postemergence; type: in vivo, Ipomoea coccinea
Procedure, shortened: (§2)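 Seeds were sown in loam–sand blend and sprayed preemergence, while plants at 1- to 4-leaf stage (2–18 cm) in peat-based medium received postemergence sprays; test chemicals were formulated in a non-phytotoxic solvent with surfactant. After 13–15 days in a greenhouse, injury was rated visually against controls, 0 (no effect) to 100 (complete control).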

velvetleaf [4] = assay: Test C postemergence; type: in vivo, Abutilon theophrasti
Procedure, shortened: as §2

giant foxtail = assay: Test A postemergence; type: in vivo, Setaria faberii; conditions: 0 to 100 scale where 0 is no effect and 100 is complete control
Procedure, shortened: as §1

rice = assay: Test B flooded paddy test; type: in vivo, Oryza sativa; conditions: Flood, 250 g ai/ha; 0 to 100 scale where 0 is no effect and 100 is complete control
Procedure, shortened: (§3)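 Plants at 2-leaf stage; pots flooded to 3 cm above soil and compound applied directly into paddy water, depth held throughout. After 13 to 15 days in greenhouse, visual rating versus controls on 0 (no effect) to 100 (complete control) scale.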

oilseed rape = assay: Test C postemergence; type: in vivo, Brassica napus
Procedure, shortened: as §2

soybean = assay: Test C postemergence; type: in vivo, Glycine max
Procedure, shortened: as §2

lambsquarters = assay: Test C postemergence; type: in vivo, Chenopodium album
Procedure, shortened: as §2

wheat [5] = assay: Test A postemergence; type: in vivo, Triticum aestivum; conditions: 0 to 100 scale where 0 is no effect and 100 is complete control; for Plant response rating, Wheat: 500 g ai/ha
Procedure, shortened: as §1

velvetleaf [6] = assay: Test A preemergence; type: in vivo, Abutilon theophrasti
Procedure, shortened: as §1

pigweed = assay: Test C postemergence; type: in vivo, Amaranthus retroflexus
Procedure, shortened: as §2

kochia = assay: Test C postemergence; type: in vivo, Kochia scoparia; conditions: for Kochia plant response rating / Plant response rating, Kochia: scale 0 to 100 (0 no effect, 100 complete control)
Procedure, shortened: as §2

large (Lg) crabgrass [7] = assay: Test A postemergence; type: in vivo, Digitaria sanguinalis; conditions: 0 to 100 scale where 0 is no effect and 100 is complete control
Procedure, shortened: as §1

Heteranthera limosa = assay: Test B flooded paddy test; type: in vivo; conditions: Flood, 250 g ai/ha; 0 to 100 scale where 0 is no effect and 100 is complete control
Procedure, shortened: as §3

[8] = 500 g ai/ha, 0 to 100 scale where 0 is no effect and 100 is complete control
[9] = 16 g ai/ha, postemergence, 0 is no effect, 100 is complete control
[10] = 31 g ai/ha, postemergence, visual rating, scale 0 to 100 (0 no effect, 100 complete control), 13 to 15 days
[11] = 125 g ai/ha, postemergence, visual rating, scale 0 to 100 (0 no effect, 100 complete control)
[12] = Postemergence, 62 g ai/ha, scale 0 to 100 (0 no effect, 100 complete control), 13 to 15 days
[13] = 125 g ai/ha, 0 to 100 scale where 0 is no effect and 100 is complete control
[14] = Postemergence, 31 g ai/ha, scale 0 to 100 (0 no effect, 100 complete control), 13 to 15 days
[15] = Postemergence, 62 g ai/ha, scale 0 to 100 (0 no effect, 100 complete control)

Question: Fc1cnc(Oc2ccccc2-n2cc(C(F)F)cn2)nc1 [Compound 228] was tested. Which “Wheat plant response rating (0 to 100 scale)” value (wheat [1]; 125 g ai/ha) did it give?
Answer: 0

Question: And the “Wheat plant response rating” value (wheat [1]; [8])?
Answer: 0

Question: What about the “Crabgrass, Large plant response rating (0 to 100 scale)” value (large (Lg) crabgrass [2]; 125 g ai/ha) of the same compound?
Answer: 90

Question: What about the “Crabgrass, Large plant response rating” value (large (Lg) crabgrass [2]; 0 to 100 scale where 0 is no effect and 100 is complete control) of the same compound?
Answer: 100

Question: And the “Velvetleaf plant response rating” value (velvetleaf [3]; 125 g ai/ha)?
Answer: 100

Question: And the “Plant response rating, Velvetleaf” value (velvetleaf [3])?
Answer: 100

Question: What about the “Plant response rating (0 to 100), Morningglory” value (morningglory; [9]) of the same compound?
Answer: 5

Question: And the “Morningglory plant response rating” value (morningglory; [10])?
Answer: 10

Question: And the “Plant response rating, Morningglory” value (morningglory; [11])?
Answer: 35

Question: What about the “Plant response rating, Morningglory” value (morningglory; [12]) of the same compound?
Answer: 25

Question: What about the “Plant response rating (0 to 100), Velvetleaf” value (velvetleaf [4]; [9]) of the same compound?
Answer: 15

Question: What about the “Velvetleaf plant response rating” value (velvetleaf [4]; [10]) of the same compound?
Answer: 55

Question: And the “Plant response rating, Velvetleaf” value (velvetleaf [4]; [11])?
Answer: 70

Question: What about the “Plant response rating, Velvetleaf” value (velvetleaf [4]; [12]) of the same compound?
Answer: 60

Question: And the “Foxtail, Giant plant response rating” value (giant foxtail; 125 g ai/ha)?
Answer: 50

Question: And the “Plant response rating, Foxtail, Giant” value (giant foxtail; 500 g ai/ha)?
Answer: 90

Question: What about the “Plant response rating, Rice” value (rice) of the same compound?
Answer: 0

Question: What about the “Plant response rating (0 to 100), Oilseed Rape” value (oilseed rape; [9]) of the same compound?
Answer: 40

Question: What about the “Oilseed Rape plant response rating” value (oilseed rape; [10]) of the same compound?
Answer: 60

Question: What about the “Plant response rating, Oilseed Rape” value (oilseed rape; [11]) of the same compound?
Answer: 85

Question: What about the “Plant response rating, Oilseed Rape” value (oilseed rape; [12]) of the same compound?
Answer: 60

Question: What about the “Plant response rating (0 to 100), Soybean” value (soybean; [9]) of the same compound?
Answer: 25

Question: What about the “Soybean plant response rating” value (soybean; [10]) of the same compound?
Answer: 35

Question: What about the “Plant response rating, Soybean” value (soybean; [11]) of the same compound?
Answer: 80

Question: And the “Plant response rating, Soybean” value (soybean; [12])?
Answer: 60

Question: And the “Plant response rating (0 to 100), Lambsquarters” value (lambsquarters; [9])?
Answer: 25

Question: What about the “Lambsquarters plant response rating” value (lambsquarters; [10]) of the same compound?
Answer: 40

Question: What about the “Plant response rating, Lambsquarters” value (lambsquarters; [11]) of the same compound?
Answer: 65

Question: What about the “Plant response rating, Lambsquarters” value (lambsquarters; [12]) of the same compound?
Answer: 75

Question: What about the “Wheat plant response rating” value (wheat [5]; 125 g ai/ha) of the same compound?
Answer: 0

Question: And the “Plant response rating, Wheat” value (wheat [5])?
Answer: 70

Question: What about the “Velvetleaf plant response rating (0 to 100 scale)” value (velvetleaf [6]; 125 g ai/ha) of the same compound?
Answer: 70

Question: What about the “Velvetleaf plant response rating” value (velvetleaf [6]; [8]) of the same compound?
Answer: 100

Question: And the “Plant response rating (0 to 100), Pigweed” value (pigweed; [9])?
Answer: 25

Question: What about the “Pigweed plant response rating” value (pigweed; [10]) of the same compound?
Answer: 50

Question: And the “Plant response rating, Pigweed” value (pigweed; [11])?
Answer: 55

Question: And the “Plant response rating, Pigweed” value (pigweed; [12])?
Answer: 60

Question: And the “Plant response rating (0 to 100), Kochia” value (kochia; [9])?
Answer: 30

Question: What about the “Kochia plant response rating” value (kochia; 31 g ai/ha, postemergence, visual rating, 13 to 15 days) of the same compound?
Answer: 60

Question: And the “Plant response rating, Kochia” value (kochia; 125 g ai/ha, postemergence, visual rating)?
Answer: 85

Question: And the “Plant response rating, Kochia” value (kochia; Postemergence, 62 g ai/ha, 13 to 15 days)?
Answer: 80

Question: What about the “Crabgrass, Large plant response rating” value (large (Lg) crabgrass [7]; 125 g ai/ha) of the same compound?
Answer: 40

Question: What about the “Plant response rating, Crabgrass, Large” value (large (Lg) crabgrass [7]; 500 g ai/ha) of the same compound?
Answer: 90

Question: And the “Plant response rating, Ducksalad” value (Heteranthera limosa)?
Answer: 75

Question: How did the “Plant response rating, Wheat” value (wheat [1]; [13]) turn out when FC(F)Oc1cnn(-c2ccccc2Oc2ncc(Cl)cn2)c1 [Compound 98] was run?
Answer: 0

Question: And the “Plant response rating, Crabgrass, Large” value (large (Lg) crabgrass [2]; [13])?
Answer: 100

Question: And the “Crabgrass, Large plant response rating” value (large (Lg) crabgrass [2]; 0 to 100 scale, 0 no effect, 100 complete control, approx. 10 days)?
Answer: 100

Question: What about the “Plant response rating, Velvetleaf” value (velvetleaf [3]) of the same compound?
Answer: 100

Question: And the “Plant response rating (0 to 100), Morningglory” value (morningglory; 125 g ai/ha, postemergence)?
Answer: 85

Question: And the “Plant response rating, Morningglory” value (morningglory; [14])?
Answer: 30

Question: What about the “Plant response rating, Morningglory” value (morningglory; [15]) of the same compound?
Answer: 65

Question: What about the “Plant response rating (0 to 100), Velvetleaf” value (velvetleaf [4]; 125 g ai/ha, postemergence) of the same compound?
Answer: 90

Question: What about the “Plant response rating, Velvetleaf” value (velvetleaf [4]; [14]) of the same compound?
Answer: 50

Question: What about the “Plant response rating, Velvetleaf” value (velvetleaf [4]; [15]) of the same compound?
Answer: 70

Question: What about the “Plant response rating, Foxtail, Giant” value (giant foxtail; 125 g ai/ha) of the same compound?
Answer: 80

Question: And the “Plant response rating, Foxtail, Giant” value (giant foxtail; 500 g ai/ha)?
Answer: 90

Question: And the “Plant response rating, Rice” value (rice)?
Answer: 15

Question: And the “Plant response rating (0 to 100), Oilseed Rape” value (oilseed rape; 125 g ai/ha, postemergence)?
Answer: 98

Question: And the “Plant response rating, Oilseed Rape” value (oilseed rape; [14])?
Answer: 80

Question: What about the “Plant response rating, Oilseed Rape” value (oilseed rape; [15]) of the same compound?
Answer: 95

Question: And the “Plant response rating (0 to 100), Soybean” value (soybean; 125 g ai/ha, postemergence)?
Answer: 90

Question: And the “Plant response rating, Soybean” value (soybean; [14])?
Answer: 40

Question: And the “Plant response rating, Soybean” value (soybean; [15])?
Answer: 60

Question: What about the “Plant response rating (0 to 100), Lambsquarters” value (lambsquarters; 125 g ai/ha, postemergence) of the same compound?
Answer: 98

Question: What about the “Plant response rating, Lambsquarters” value (lambsquarters; [14]) of the same compound?
Answer: 35

Question: And the “Plant response rating, Lambsquarters” value (lambsquarters; [15])?
Answer: 80

Question: And the “Plant response rating, Wheat” value (wheat [5])?
Answer: 60

Question: And the “Plant response rating, Velvetleaf” value (velvetleaf [6]; [13])?
Answer: 90

Question: What about the “Plant response rating (0 to 100), Pigweed” value (pigweed; 125 g ai/ha, postemergence) of the same compound?
Answer: 75

Question: What about the “Plant response rating, Pigweed” value (pigweed; [14]) of the same compound?
Answer: 75

Question: And the “Plant response rating, Pigweed” value (pigweed; [15])?
Answer: 75

Question: And the “Kochia plant response rating” value (kochia; 16 g ai/ha, postemergence, visual rating, 13 to 15 days)?
Answer: 70

Question: And the “Plant response rating (0 to 100), Kochia” value (kochia; 125 g ai/ha, postemergence)?
Answer: 98

Question: What about the “Plant response rating, Kochia” value (kochia; Postemergence, 31 g ai/ha, 13 to 15 days) of the same compound?
Answer: 80

Question: What about the “Plant response rating, Kochia” value (kochia; Postemergence, 62 g ai/ha) of the same compound?
Answer: 90

Question: And the “Plant response rating, Crabgrass, Large” value (large (Lg) crabgrass [7]; 125 g ai/ha)?
Answer: 80

Question: What about the “Plant response rating, Crabgrass, Large” value (large (Lg) crabgrass [7]; 500 g ai/ha) of the same compound?
Answer: 100

Question: What about the “Plant response rating, Ducksalad” value (Heteranthera limosa) of the same compound?
Answer: 85
